# Laboratory results as given in patent US8048924B2, “Methods and compositions employing 4-aminophenylacetic acid compounds” (Biocon Limited, priority 2001, dated 2011).
# Experiments:
# DSS induced colitis = test: Dextran sulfate sodium (DSS) colitis in the rat; type: in vivo, Sprague-Dawley rats; conditions: oral gavage bid
# Experimental: The effectiveness of APAZA™ and sulfasalazine in ameliorating intestinal inflammation in a model of dextran sulfate sodium (DSS) induced colitis in Sprague-Dawley rats was determined. Thirty-six male Sprague-Dawley rats that were 7-8 weeks old and weighed 240-260 g were studied. […] After completion of the treatment period, rats were euthanized and the efficacy of the test drugs in inhibiting colitis was assessed by the following: • Disease Activity Index Scoring: • Body weight • Colon wet weight: body weight ratios • Colonic Myeloperoxidase (MPO) activity • Histopathological changes of the colon
# [1] = system: Clostridium difficile toxin A-induced colitis; test: Toxin A-induced colitis, chronic oral administration in drinking water for 5 days; type: in vivo, Sprague-Dawley rats
# Experimental: Eighteen adult male Sprague-Dawley rats weighing 175-222 grams were divided into 3 groups each consisting of 6 animals: • 4-APAA (AA-002) 100 mg/kg orally+Toxin A (10 μg) injected into the lumen of the colon • Vehicle (DW) orally+Toxin A (10 μg) injected into the lumen of the colon • Vehicle (DW) orally
# Following 5 days of 4-APAA administration in drinking water, both ketamine (67 mg/kg) and xylazine (33 mg/kg) were administered, an isolated colonic segment was surgically created, and 10 μg of Clostridium difficile toxin A was injected into the lumen of the colon. After 3 hours, the rats were euthanized and colonic inflammation was assessed by quantitating luminal fluid accumulation and myeloperoxidase (MPO) content in the colon tissue. In addition, histological evaluation of the treated colon segments was completed.
# Drug Administration. In studies using chronic administration, sulfasalazine, APAZA™, and 4-APAA were administered in the drinking water at doses ranging from 0.1-100 mg/kg·d for 5 days. Sulfasalazine and APAZA™ were initially dissolved in 0.1 N NaOH at 30 times the desired final concentration and then the pH was adjusted to 8.5 with 1 N HCl and the solution was diluted 30-fold with distilled water. 4-APAA was dissolved in water. On the fifth day, the rats were fasted overnight (with access to their drinking water±sulfasalazine, APAZA™, or 4-APAA ad lib), anesthetized, and isolated colonic segments were surgically created as described below. In studies using acute administration, the rats were pretreated by injection of 4-APAA at doses of 10 or 100 μg in 200 μl of PBS (pH 7.4) into the lumen of the colonic segment using a 27 ga syringe needle. Toxin A (10 μg) in 200 μl of PBS (pH 7.4) was tested alone or injected into the lumen of the colonic segment 30 minutes after 4-APAA using a 27 ga syringe needle.
# Surgery. Isolated colonic segments were created in male Sprague-Dawley rats (150-175 g) as described previously for isolated ileal segments (see, Gastroenterol. 111: 1272-1280 (1996) and Proc. Natl. Acad. Sci. USA 91: 947-951 (1994). Rats fasted overnight with free access to drinking water were anesthetized by intramuscular injection of 67 mg/kg ketamine:33 mg/kg xylazine. A midline abdominal incision was made and colonic segments 5 cm in length were created by ligation with 4-0 silk sutures, taking care not to disturb the vascular supply. Toxin A (10 μg) in 400 μl of PBS (pH 7.4) was injected into the lumen of the colonic segment using a 27 ga syringe needle. Control rats were prepared similarly and their colonic segments were injected with the vehicles. The midline incision was then closed with a running suture, and the rats were placed on a heating pad at 37° C. for 3 hours. After 3 hours, the rats were euthanized and samples of the treated colonic segments were taken for analysis in vitro.
# Histopathology. The severity of colonic histological damage was assessed using formalin-fixed, paraffin-embedded, H&E-stained sections.
# Luminal Fluid Accumulation. Luminal fluid accumulation was measured gravimetrically. After 3 hours of treatment, the isolated colonic segments were removed, weighed, and their lengths were measured. Luminal fluid accumulation is expressed as mg wet weight per cm length.
# Myeloperoxidase Activity. Myeloperoxidase (MPO) activity was measured as described previously (see, J. Invest. Dermatol. 78: 206-209 (1982)). Briefly, pieces of control and treated colonic segments were homogenized in 0.5% hexadecyltrimethylammonium bromide in 50 mM KH2PO4 (pH 6), freeze/thawed three times, centrifuged at 4° C. for 2 minutes, and then the absorbance of each supernatant was read at 460 nm at 0, 30, and 60 seconds after the addition of 2.9 ml of o-dianisidine dihydrochloride to 0.1 ml supernatant. The maximal change in absorbance per minute was used to calculate the units of MPO activity based on the molar absorbency index of oxidized o-dianisidine of 1.13×10^4 M^−1 cm^−1. […]
# DNBS colitis = test: Study AA-PH-003: oral and rectal APAZA and sulfasalazine in DNBS colitis; type: in vivo, male Lewis rats; parameters: Average Diarrhea Score Day 3: scale not given here; conditions: for Colonic Inflammation Scores: scale 0-2
# Experimental: Study AA-PH-003 was designed to evaluate the anti-inflammatory efficacy of oral and rectal doses of APAZATM and sulfasalazine in the DNBS colitis model in rats. […] Thirty-five adult male Lewis rats (body weight 200-250 g) were studied. […] Animal body weights and incidence of diarrhea were recorded daily. […] Animals in the DNBS groups and the parallel deionized water group were sacrificed on day 5. Laparotomies and colectomies were performed and animals were scored for the presence and severity of intestinal adhesions, strictures, inflammation, and ulceration. Colon: body weight ratios were determined and colon histopathology was performed.
# [2] = Single oral dose plasma pharmacokinetics and elimination of APAZA and metabolites in mice; type: in vivo, male CD-1 mice; conditions: single oral dose of APAZA, male CD-1 mice
# Experimental: Initial single dose pharmacokinetic studies with the APAZA™ compound have been conducted in dogs and mice. A study was completed in order to determine the plasma pharmacokinetics and elimination of the APAZA™ compound and its metabolites (5-ASA, 4-APAA, 5-aceASA and 4-aceAPAA) following single oral dose administration to male CD-1 mice. […] When normalized to molar values, the Cmax values for all the APAZA™ metabolites were less than APAZA™; the values ranged from 2.68 to 13.8 μM. However, the normalized APAZA™ AUC∞ value was not greater than all the other metabolites; these values ranged from […]. […] The Tmax values for APAZA™ and its metabolites were 1 hour and 4 hours, respectively.
# [3] = 1 mg/kg·day in drinking water, 5 days
# [4] = 10 mg/kg·day in drinking water, 5 days
# [5] = 100 mg/kg·day in drinking water, 5 days
# [6] = orally + 30 mg DNBS, APAZA 200 mg/kg, sulfasalazine 265.6 mg/kg
# [7] = rectally + 30 mg DNBS, APAZA 200 mg/kg, sulfasalazine 265.6 mg/kg
# [8] = 100 mg/kg·day in drinking water, 5 days, toxin A 10 μg
structure (smiles),measurement,setting,value
"O=C(O)c1cc(/N=N/c2ccc(S(=O)(=O)Nc3ccccn3)cc2)ccc1O [sulfasalazine, reference compound]","body weights, rats drinking DW versus DSS",DSS induced colitis; days 10 and 11,statistically significant differences
same,"colon wet weight: body weight ratio, DSS versus DW","DSS induced colitis; APAZA 100 mg/kg, sulfasalazine 133 mg/kg",increased
same,Disease Activity Index (DAI) score,"DSS induced colitis; rats drinking 5% DSS, APAZA 100 mg/kg, sulfasalazine 133 mg/kg",significantly greater
same,colonic MPO activity,DSS induced colitis; rats receiving DSS,significant increase
same,histological changes of the colon,DSS induced colitis; rats receiving DSS,severe colitis
same,"toxin A-induced MPO activity, significance of inhibition",[1]; [3],did not significantly inhibit
same,"toxin A-induced luminal fluid accumulation, significance of inhibition",[1]; [3],did not significantly inhibit
same,toxin A-induced structural damage of the colon (H&E),[1]; [3],little effect
same,"toxin A-induced luminal fluid accumulation, significance of inhibition",[1]; [4],significantly inhibited
same,toxin A-induced structural damage of the colon (H&E),[1]; [4],little effect
same,"toxin A-induced MPO activity, significance of inhibition",[1]; [5],significantly inhibited
same,"toxin A-induced luminal fluid accumulation, significance of inhibition",[1]; [5],significantly inhibited
same,toxin A-induced structural damage of the colon (H&E),[1]; [5],did inhibit
same,doses that significantly inhibited toxin A-induced colitis,"[1]; chronically for 5 days in drinking water, doses tested 1-100",100 mg/kg·day
same,reduction relative to control in net colon: body weight (% BW) ratio,DNBS colitis; oral groups,38.4%
same,Average Diarrhea Score Day 3,DNBS colitis; [6],2.4
same,Colon Histopathology (# severe lesions),DNBS colitis; [6],8
same,Length of Colonic Inflammation (cm),DNBS colitis; [6],2.3 cm
same,Mean Body Weight,DNBS colitis; [6],215.4 g
same,Mean Colon Length (cm),DNBS colitis; [6],12.9 cm
same,Net Colon: Body Weight Ratio,DNBS colitis; [6],0.1862
same,Colonic Inflammation Scores,DNBS colitis; [6],1.4
same,Average Diarrhea Score Day 3,DNBS colitis; [7],2
same,Length of Colonic Inflammation (cm),DNBS colitis; [7],1.8 cm
same,Mean Body Weight,DNBS colitis; [7],217.0 g
same,Mean Colon Length (cm),DNBS colitis; [7],12.8 cm
same,Net Colon: Body Weight Ratio,DNBS colitis; [7],0.179
same,Colonic Inflammation Scores,DNBS colitis; [7],1
CC(=O)Nc1ccc(O)c(C(=O)O)c1 [acetylated 5-ASA],t1/2,[2]; plasma,11.27 h
same,plasma concentration at 24 hours,[2],below the limit of detection
"O=C(O)Cc1ccc(/N=N/c2ccc(CC(=O)O)cc2)cc1 [4-APAA dimer, [4-(4-Carboxymethyl-phenylazo)-phenyl]-acetic acid]","toxin A-induced MPO activity, significance of inhibition",[1]; [5],significantly inhibited
same,"toxin A-induced luminal fluid accumulation, significance of inhibition",[1]; [5],did not inhibit
same,toxin A-induced structural damage of the colon (H&E),[1]; [5],did not inhibit
same,percent inhibition of toxin A-induced MPO activity,[1]; [8],60±9%
same,percent inhibition of toxin A-induced luminal fluid accumulation,[1]; [8],21±8%
"CC(=O)Nc1ccc(CC(=O)O)cc1 [4-aceAPAA, (4-acetylamino-phenyl)-acetic acid, reference compound]",plasma concentration at 24 hours,[2],below the limit of detection
